Data: patent US9358276B2, “Methods of diagnosing and treating small intestinal bacterial overgrowth (SIBO) and SIBO-related conditions” (Cedars-Sinai Medical Center, priority 1999, dated 2016)

Columns and labels:
[1] = system: isolated segment of guinea pig colon; settings: Wade et al. 1996; slower as dose increased; cited from earlier work
[2] = system: release of 5-HT from the proximal gut; experiment: 5-HT released by the proximal gut (ELISA of mid-gut fistula output); format: in vivo, dog; settings: intravenous PYY (0.8 mg/kg/h); Control 140.1 μg
Protocol: To test the hypothesis that fat in the distal gut causes the release of 5-HT in the proximal gut, the amount of 5-HT collected from the output of the mid-gut fistula (proximal gut 5-HT) over a 90-minute period of buffer perfusion through both the duodenal and mid-gut fistulas (2 mL/min); buffer (control) or oleate (60 mM) was administered to the distal gut (n=1). The amount of 5-HT was determined using an ELISA kit specific for 5-HT (Sigma; Graham-Smith, D. G., The carcinoid syndrome, In: Topics in Gastroenterology, Truclove, S. C. and Lee, E. (eds.), Blackwells, London, p. 275 [1977]; Singh, S. M. et al., Concentrations of serotonin in plasma-a test for appendicitis?, Clin. Chem. 34:2572-2574 [1988]). The amount of 5-HT released by the proximal gut increased in response to fat in the distal gut from 100 μg in the control (buffer minus oleate) to 338 μg (buffer plus oleate to distal gut), showing that 5-HT is released in the proximal gut in response to fat in the distal gut. Thus, the release of 5-HT by the proximal gut can serve as a relayed signal for fat in the distal gut. The relayed release of 5-HT in the proximal gut in response to fat in the distal gut is consistent with Example 14(2), showing that slowing of intestinal transit by fat depends on an efferent 5-HT-mediated pathway to the proximal gut.
To test the hypothesis that 5-HT in the distal gut causes the release of 5-HT in the proximal gut, the amount of 5-HT collected from the output at the mid-gut fistula (Proximal gut 5-HT) over a 90-minute period of buffer perfusion through both the duodenal and mid-gut fistulas (2 mL/min each) was compared in the presence or absence of 5-HT (0.05 mg/kg/h) administered to the distal gut (n=1). 5-HT concentration was determined using an ELISA kit specific for 5-HT (Sigma). The amount of 5-HT released by the proximal gut increased from 156 μg in the control (minus distal 5-HT) to 450 μg (plus 5-HT to distal gut), implying that 5-HT is released by the proximal gut in response to 5-HT in the distal gut. Thus, the release of 5-HT by the proximal gut can serve as a relayed signal for distal gut 5-HT. This relayed release of 5-HT in the proximal gut explains the results of Example 14(6) showing that the slowing of intestinal transit by distal gut 5-HT was abolished by ondansetron in the proximal gut (efferent limb of response) as well as in the distal gut (afferent limb of response).
To test the hypothesis that the proximal gut releases 5-HT in response to lipid in the distal gut, we compared the amount of 5-HT in the output of the midgut fistula (i.e., proximal gut 5-HT) with buffered saline (control) or oleate in the distal gut. The amount of 5-HT collected over 90 min was measured using a 5-HT-specific ELISA test kit, as described herein above. Four dogs were tested.
The amount of 5-HT released from the proximal gut in response to intravenous PYY or buffered saline (Control) during buffer perfusion (2 mL/min over 90 minutes) through both the duodenal and mid-gut fistulas was measured to test the hypothesis that intravenous PYY (0.8 mg/kg/h) causes the release of 5-HT in the proximal gut. 5-HT was measured as in Example 14(9) above. The amount of 5-HT released by the proximal gut increased from 140.1 μg (Control) to 463.1 μg in response to intravenous PYY.

isolated canine ileum = settings: infused into isolated canine ileum; Fox-Threlkeld et al. 1993; cited from earlier work
intestinal transit = experiment: Intestinal transit in multi-fistulated dogs, cumulative % recovery of 99mTc-DTPA; format: in vivo, dog; settings: n=2
Excerpt: The experiments described below are based on a previously described chronic multi-fistulated dog model, employing surgically fistulated male or female mongrel dogs weighing about 25 kg each. (Lin, H. C. et al., Inhibition of gastric emptying by glucose depends on length of intestine exposed to nutrient, Am. J. Physiol. 256:G404-G411 [1989]). The small intestines of the dogs were each about 300 cm long from the pylorus to the ileal-cecal valve. The duodenal fistula was situated 15 cm from the pylorus; the mid-gut fistula was situated 160 cm from the pylorus. Occluding Foley catheters (balloon catheters that are inflated to produce a water-tight seal with the lumenal surface) were placed into the distal limb of a duodenal fistula and a mid-gut fistula, fat or other test agents were administered lumenally to the thus compartmentalized Aproximal≅ section of the gut, i.e., between the fistulas, or to the compartmentalized Adistal≅ section of the gut, i.e., beyond the mid-gut fistula. Perfusate was pumped into a test section through the catheter at a rate of 2 mL/minute. Test agents were administered along with buffer perfusate, but some test agents were administered intravenously, where specifically noted.
Intestinal transit measurements were made by tracking the movement of a liquid marker across the approximately 150 cm intestinal test segment by delivering about 20 μCi ^99mTc chelated to diethyltriamine pentaacetic acid (DTPA)(Cunningham, K. M. et al., Use of technicium-99m (V)thiocyanate to measure gastric emptying of fat, J. Nucl. Med. 32:878-881 [1991]) as a bolus into the test segment after 60 minutes of a 90-minute perfusion. The output from the mid-gut fistula was collected every 5 min thereafter for 30 minutes, which period is illustrated in FIGS. 9-23. Using a matched dose of ^99mTc to represent the original radioactivity (Johansson, C., Studies of gastrointestinal interactions, Scand. J. Gastroenterol. 9(Suppl 28):1-60 [1974]; Zierler, K., A simplified explanation of the theory of indicator dilution for measurement of fluid flow and volume and other distributive phenomena, Bull. John Hopkins 103:199-217 [1958]), the radioactivity delivered into the animal as well as the radioactivity of the recovered fistula output were all measured using a gamma well counter. After correcting all counts to time zero, intestinal transit was calculated as the cumulative percent recovery of the delivered ^99mTc-DTPA. This method has been well validated over the years and appreciated for its advantage of minimal inadvertent marker loss. […] There was a very high level of marker recovery, with 90% of the marker recovered by 30 minutes and 98% of the marker recovered by 45 minutes.

Compound	passage of a pellet through an isolated segment of guinea pig colon [1]	amount of 5-HT released by the proximal gut [2] [µg]	phasic circular muscle activity (isolated canine ileum)	marker recovery (intestinal transit; 30 μg PYY (0.8 mg/kg/h) intravenously, Buffer Control 78.1±2.2%) [%]	marker recovery (intestinal transit; IV PYY 0.8 μg/kg/h + lumenal normal saline, control 75.1±3.6%) [%]
CNCCC(Oc1ccc(C(F)(F)F)cc1)c1ccccc1 (centres unmarked) [fluoxetine]	initially accelerated				
PYY: Peptide YY, a physiological fat signal molecule that slows transit		463.1	dose-dependently increased	11.8±5.4	17.1±11.0
